Source: the Deep4Chem optical property database
Blank lines part the entries; values can stand above or below the molecule they belong to.

Assay: solvent given as SMILES

emission maximum (in ClCCl): 654 nm
SMILES: COc1ccc2cc(C(C)C(=O)Oc3ccc(-c4c5nc(c(-c6ccc(C)cc6)c6ccc([nH]6)c(-c6ccc(C)cc6)c6nc(c(-c7ccc(C)cc7)c7ccc4[nH]7)C=C6)C=C5)cc3)ccc2c1 (centres undefined)

SMILES: Cc1ccccc1[B-]1(c2ccccc2C)n2nc(C(F)(F)F)cc2-c2c3ccccc3cc[n+]21
emission maximum (in C1CCCCC1): 414 nm
emission maximum (in Cc1ccccc1): 414 nm
emission maximum (in ClCCl): 412 nm

emission maximum (in CCO): 305 nm
SMILES: c1ccc(C2c3ccccc3-c3ccccc32)cc1

emission maximum (in CC#N): 590 nm
SMILES: c1cc2c3c(cccc3c1)C(N1CCOCCOCCN(C3=Nc4cccc5cccc3c45)CCOCC1)=N2

emission maximum (in C1COCCO1): 723 nm
emission maximum (in CCO): 711 nm
emission maximum (in CN(C)C=O): 717 nm
emission maximum (in ClC(Cl)Cl): 724 nm
SMILES: CCCCCCCN1C(=CC2=C([O-])C(=Cc3sc4ccccc4[n+]3CCCCCCC)C2=C(C#N)C#N)Sc2ccccc21

SMILES: c1cc2c([nH]c3c4[nH]c5sccc5c4c4nsnc4c23)s1
emission maximum (in C1CCOC1): 511 nm
emission maximum (in CCOC(C)=O): 510 nm
emission maximum (in CN(C)C=O): 547 nm
emission maximum (in Cc1ccccc1): 496 nm
emission maximum (in ClCCl): 533 nm

emission maximum (in C1CCOC1): 809 nm
emission maximum (in ClCCl): 811 nm
SMILES: CCC(CC)COC1=CC2=C3c4cc(OCC(CC)CC)c(-c5cccs5)n4[B-](F)(F)[n+]4c3n(c3cc(C(C)(C)C)ccc34)[B-](F)(F)[N+]2=C1c1cccs1

emission maximum (in ClC(Cl)Cl): 461 nm
SMILES: c1ccc(-c2ncc3ccccn23)cc1

emission maximum (in ClCCl): 448 nm
SMILES: CC(C)(C)c1ccc(-c2cc(-c3ccc(-c4cc(-c5ccc(C(C)(C)C)cc5)c(C(=O)NC5CCCCC5)s4)s3)sc2C(=O)NC2CCCCC2)cc1

emission maximum (in O): 660 nm
SMILES: C#CCOc1ccc(/C=C/C2=[N+]3C(=C(c4ccc(N(CC)CC)cc4)c4c(C)cc(/C=C/c5ccc(S(=O)(=O)O)cc5S(=O)(=O)O)n4[B-]3(F)F)C(C)=C2)cc1

emission maximum (in ClC(Cl)Cl): 443 nm
SMILES: Cc1ccc(C2=Cc3ccc4ccccc4[n+]3[B-](F)(F)O2)cc1

SMILES: O=C1NC(=O)c2c1c1c3ccccc3[nH]c1c1[nH]c3ccccc3c21
emission maximum (in C1CCOC1): 475 nm
emission maximum (in CC#N): 500 nm
emission maximum (in CC(C)OC(C)C): 450 nm
emission maximum (in CCCCOCCCC): 461 nm
emission maximum (in CCO): 550 nm
emission maximum (in CCOC(C)=O): 473 nm
emission maximum (in CN(C)C=O): 503 nm
emission maximum (in Cc1ccccc1): 465 nm
emission maximum (in ClCCl): 492 nm

emission maximum (in ClCCl): 608 nm
SMILES: CCCCCCC1(CCCCCC)c2cc(-c3ccc(-c4ccc(-c5ccc(-c6ccc7c(c6)C(CCCCCC)(CCCCCC)c6cc(-n8c9ccc(-n%10c%11ccccc%11c%11ccccc%11%10)cc9c9cc(-n%10c%11ccccc%11c%11ccccc%11%10)ccc98)ccc6-7)s5)c5nsnc45)s3)ccc2-c2ccc(-n3c4ccc(-n5c6ccccc6c6ccccc65)cc4c4cc(-n5c6ccccc6c6ccccc65)ccc43)cc21

emission maximum (in ClCCl): 643 nm
SMILES: c1cc2ccc3[s+]c4ccc5cccc6c7cccc8c(c1)c2c3c(c87)c4c56

emission maximum (in ClCCl): 498 nm
SMILES: C[Si]1(C)O[Si](C)(C)c2cc3c(-c4ccccc4F)c4cc(Cl)ccc4nc3cc21

SMILES: COC(=O)/C(C#N)=c1\s/c(=c2/s/c(=C(/C#N)C(=O)OC)c3cc(-c4ccccc4)sc23)c2sc(-c3ccccc3)cc12
emission maximum (in Cc1ccccc1): 640 nm

emission maximum (in C1CCCCC1): 585 nm
SMILES: COc1cc(OC)c2c(c1)C(=O)c1cc(OC)cc(OC)c1-2

emission maximum (in ClCCl): 564 nm
SMILES: COc1ccc2cc(/C=C/C3=C4CCc5ccccc5C4=[O+][B-](F)(F)O3)ccc2c1

emission maximum (in c1ccccc1): 424 nm
SMILES: Cn1c(=O)c(-c2ccccc2)nc2ccccc21

emission maximum (in CC#N): 311 nm
SMILES: O=c1cc[nH]c(=O)[nH]1

emission maximum (in ClC(Cl)Cl): 411 nm
SMILES: CCCCn1c2ccc(-c3cccc(F)c3)cc2c2ccc3c4cc(-c5cccc(F)c5)ccc4n(CCCC)c3c21

emission maximum (in C1CCOC1): 395 nm
SMILES: F[Si-](F)(c1ccccc1)(c1c2ccccc2cc2ccccc12)c1c2ccccc2cc2ccccc12

emission maximum (in ClCCl): 489 nm
SMILES: CCCCOc1c(Br)cc2cc(Br)c(OCCCC)c3c4c(OCCCC)c(Br)cc5cc(Br)c(OCCCC)c(c1c23)c54

emission maximum (in CO): 375 nm
SMILES: COc1ccccc1-c1nc(-c2ccccc2)c(-c2ccccc2)[nH]1

emission maximum (in C1CCOC1): 375.8 nm
SMILES: CCCCCCCCCCCCn1c(-c2cc(-c3nc4ccc(C)cc4n3CCCCCCCCCCCC)cc(-c3nc4ccc(C)cc4n3CCCCCCCCCCCC)c2)nc2ccc(C)cc21

emission maximum (in C1CCCCC1): 413 nm
SMILES: CCCC1(CCC)c2cc(-c3ccc(C(C)(C)C)cc3)ccc2-c2ccc(-c3ccc4c(c3)C(CCC)(CCC)c3cc(-c5ccc6c(c5)C(CCC)(CCC)c5cc(-c7ccc8c(c7)C(CCC)(CCC)c7cc(-c9ccc(C(C)(C)C)cc9)ccc7-8)ccc5-6)ccc3-4)cc21

emission maximum (in C1CCOC1): 472 nm
SMILES: CCCCOc1cc(C=C2c3ccccc3-c3ccccc32)c(OCCCC)cc1C=C1c2ccccc2C=Cc2ccccc21

emission maximum (in ClC(Cl)Cl): 536 nm
emission maximum (in ClCCl): 546 nm
SMILES: O=[N+]([O-])c1ccc(C#Cc2ccc3ccccc3c2)cc1

emission maximum (in ClCCl): 406 nm
SMILES: c1ccc(C2=C(c3ccccn3)[Si](c3ccccc3)(c3ccccc3)c3ccccc32)cc1

emission maximum (in ClCCl): 465 nm
SMILES: CC(C)(C)c1ccc(-c2c3cccc4c(-c5ccccc5)cc5c(-c6ccc(C(C)(C)C)cc6)c6cccc7c(-c8ccccc8)cc2c(c76)c5c43)cc1

emission maximum (in C1CCCCC1): 410 nm
emission maximum (in CC#N): 411 nm
SMILES: C[Si](C)(C)[Si](C)(C)c1cccc2cc3ccccc3cc12

emission maximum (in ClCCl): 563 nm
SMILES: CC1=C(C)c2cccc3c2c(cc2nc4ccccc4nc23)O1

emission maximum (in C1CCCCC1): 537 nm
emission maximum (in CC#N): 578 nm
SMILES: COc1cc(OC)c2c(c1)C(=O)c1ccc(OC)cc1-2

SMILES: CC(=O)c1c2c(cc3ccc(N(C)C)cc13)CCC2
emission maximum (in C1CCCCC1): 466 nm
emission maximum (in C1CCOC1): 497 nm
emission maximum (in C1COCCO1): 495 nm
emission maximum (in CC#N): 529 nm
emission maximum (in CCO): 578 nm
emission maximum (in CS(C)=O): 536 nm
emission maximum (in Cc1ccccc1): 490 nm
emission maximum (in ClC(Cl)Cl): 516 nm
emission maximum (in ClCCl): 510 nm

SMILES: Nc1ccc2c3c(cccc13)C(=O)c1ccccc1-2
emission maximum (in CC#N): 626.17 nm
emission maximum (in CC(C)=O): 610.13 nm
emission maximum (in CC(C)O): 664.89 nm
emission maximum (in CCCCOCCCC): 570.13 nm
emission maximum (in CCOC(C)=O): 592.07 nm
emission maximum (in CCOCC): 585.14 nm
emission maximum (in CO): 667.11 nm
emission maximum (in Cc1ccccc1): 569.15 nm
emission maximum (in Clc1ccccc1): 579.04 nm
emission maximum (in N#Cc1ccccc1): 610.13 nm
emission maximum (in O=C1CCCCC1): 610.13 nm

emission maximum (in ClCCl): 397 nm
SMILES: COc1ccc2c(c1)-c1cc3c(cc1[Si]2(c1ccccc1)c1ccccc1)-c1ccccc1[Si]3(c1ccccc1)c1ccccc1

emission maximum (in ClCCl): 620 nm
SMILES: CN(c1ccccc1)c1ccc(N(c2ccccc2)c2ccc3ccc4c(N(c5ccccc5)c5ccc(N(C)c6ccccc6)cc5)ccc5ccc2c3c54)cc1

SMILES: CC1(C)c2ccccc2N(c2ccc(C(=C(C#N)C#N)c3ccc(N4c5ccccc5C(C)(C)c5ccccc54)cc3)cc2)c2ccccc21
emission maximum (in Cc1ccccc1): 649 nm

emission maximum (in CC#N): 433 nm
SMILES: N#Cc1nn(-c2ccccc2C(F)(F)F)nc1N1CCCC1

emission maximum (in ClCCl): 602 nm
SMILES: CC1=C(C#Cc2ccc(B(c3c(C)cc(C)cc3C)c3c(C)cc(C)cc3C)cc2)C(C)=[N+]2C1=C(c1ccccc1)c1c(C)c(C#Cc3ccc(B(c4c(C)cc(C)cc4C)c4c(C)cc(C)cc4C)cc3)c(C)n1[B-]2(F)F

emission maximum (in CCO): 505 nm
SMILES: CCOC(=O)c1cc(C(=O)OCC)c2c(C)ccc(OC(=O)OC(C)(C)C)c2n1

SMILES: CN(C)c1ccc(/C=C/c2cc[n+](CCC[n+]3ccc(/C=C/c4ccc(N(C)C)cc4)cc3)cc2)cc1
emission maximum (in CC1COC(=O)O1): 604 nm
emission maximum (in CC#N): 609 nm
emission maximum (in CC(C)=O): 608 nm
emission maximum (in CC(C)O): 594 nm
emission maximum (in CCO): 601 nm
emission maximum (in CN(C)C=O): 607 nm
emission maximum (in CO): 604 nm
emission maximum (in CS(C)=O): 610 nm
emission maximum (in ClC(Cl)Cl): 566 nm
emission maximum (in O): 597 nm
emission maximum (in c1ccncc1): 598 nm

emission maximum (in ClCCl): 498 nm
SMILES: COc1ccc2c(c1)c1cc(OC)ccc1c1c2c2c(C(=O)NC(C)(C)C)ccc(C(=O)NC(C)(C)C)c2c2c3ccc(OC)cc3c3cc(OC)ccc3c21

emission maximum (in ClC(Cl)Cl): 431 nm
SMILES: CCC1(CC)c2cc(-c3ccc(N(c4ccc(-c5ccc6c(c5)C(CC)(CC)c5cc(N7c8ccccc8C(C)(C)c8ccccc87)ccc5-6)cc4)c4ccc(-c5ccc6c(c5)C(CC)(CC)c5cc(N7c8ccccc8C(C)(C)c8ccccc87)ccc5-6)cc4)cc3)ccc2-c2ccc(N3c4ccccc4C(C)(C)c4ccccc43)cc21

emission maximum (in CC#N): 417 nm
emission maximum (in CCO): 457 nm
SMILES: CC(=O)c1cc2c(cc1F)NC(C)(C)CC2=O

emission maximum (in ClCCl): 400 nm
SMILES: N#Cc1ccc(-n2c(-c3ccc(-c4ccc(-n5c6ccccc6c6ccccc65)cc4)s3)nc3c4ccccc4c4ccccc4c32)c2ccccc12

SMILES: COc1ccc2c(c1)c1ccccc1n2-c1nc2ccccc2nc1-n1c2ccccc2c2cc(OC)ccc21
emission maximum (in C1CCOC1): 588.86 nm
emission maximum (in CCCCCC): 508.97 nm
emission maximum (in Cc1ccccc1): 560 nm

emission maximum (in CC#N): 479 nm
emission maximum (in CCO): 419 nm
emission maximum (in ClCCl): 483 nm
SMILES: C[P+]1(c2ccccc2)C2=C(c3ccccc31)S(=O)(=O)c1ccccc12 (centres undefined)

emission maximum (in ClCCl): 746 nm
SMILES: CCN(CC)c1ccc2c(-c3ccccc3C(=O)O)c3c([o+]c2c1)/C(=C/c1nc(-c2ccccc2)n2ccccc12)CCC3

emission maximum (in CC#N): 466 nm
emission maximum (in CO): 484 nm
emission maximum (in ClCCl): 462 nm
SMILES: COc1ccc(OC)c(-c2[nH]c(=O)n3c2-c2ccccc2C3=O)c1

SMILES: CCC1(CC)c2ccccc2-c2ccc(C#Cc3ccc4ccc5cccc6ccc3c4c56)cc21
emission maximum (in C1CCCCC1): 407 nm
emission maximum (in C1CCOC1): 410 nm
emission maximum (in CC#N): 408 nm
emission maximum (in CCOC(C)=O): 406 nm
emission maximum (in CN(C)C=O): 412 nm
emission maximum (in Cc1ccccc1): 412 nm
emission maximum (in ClC(Cl)Cl): 413 nm
emission maximum (in ClCCl): 412 nm

emission maximum (in C1CCOC1): 487 nm
emission maximum (in CC#N): 502 nm
emission maximum (in ClC(Cl)Cl): 494 nm
emission maximum (in ClCCl): 496 nm
SMILES: COc1cc(/C=C/c2nc3ccccc3o2)c(OC)cc1/C=C/c1nc(C)nc(/C=C/c2cc(OC)c(/C=C/c3nc4ccccc4o3)cc2OC)n1

emission maximum (in CC#N): 560 nm
SMILES: CCCn1c2cccc3oc4cccc5oc6cccc1c6[c+](c45)c32
